Source: US20250145594A1, “MODULATORS OF THE INTEGRATED STRESS PATHWAY” (Calico Life Sciences LLC, priority 2020, published 2025)

Tested on: ATF4 luciferase reporter in HEK293T cells
Experiment: ATF4-Luc assay (in vitro model of VWMD)
Format: cell-based, human
Settings: Homo sapiens, HEK-293T, 7 h, HEK293T cells carrying the ATF4 luciferase reporter, 1 μg/mL tunicamycin, One Glo luminescence
How it was run: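 Stable HEK293T line expressing firefly luciferase behind the human ATF4 5′-UTR, treated with 1 μg/mL tunicamycin plus compound for 7 hours. Luminescence read with One Glo; EC50 determined.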

| Structure (SMILES) | EC50 [nM] |
| --- | --- |
| O=C(COc1ccc(Cl)c(F)c1)NC12CC(n3cc(OCCCOC(F)(F)F)cn3)(C1)C2 [Compound 454, 2-(4-chloro-3-fluorophenoxy)-N-(3-{4-[3-(trifluoromethoxy)propoxy]-1H-pyrazol-1-yl}bicyclo[1.1.1]pentan-1-yl)acetamide] | < 10 |
| CC1(C(F)(F)F)CCCN1C(=O)c1cnn(C23CC(NC(=O)[C@H]4C[C@@H](O)c5cc(Cl)ccc5O4)(C2)C3)c1 (stereo partly drawn) [Compound 328, (2R,4R)-6-chloro-4-hydroxy-N-(3-{4-[2-methyl-2-(trifluoromethyl)pyrrolidine-1-carbonyl]-1H-pyrazol-1-yl}bicyclo[1.1.1]pentan-1-yl)-3,4-dihydro-2H-1-benzopyran-2-carboxamide] | 50 to 250 |
| O=C(CO[C@H]1C[C@@H](OC(F)(F)F)C1)NC12CCC(NC(=O)[C@H]3C[C@@H](O)c4cc(C(F)(F)F)ccc4O3)(CC1)C[C@@H]2O [Compound 460, (2R,4R)-4-hydroxy-N-[(3S)-3-hydroxy-4-(2-{[(1s,3R)-3-(trifluoromethoxy)cyclobutyl]oxy}acetamido)bicyclo[2.2.2]octan-1-yl]-6-(trifluoromethyl)-3,4-dihydro-2H-1-benzopyran-2-carboxamide] | < 10 |
| O=C(NC12CC(n3cc(-c4cnn(CC(F)(F)F)c4)cn3)(C1)C2)[C@H]1C[C@@H](O)c2cc(Cl)c(F)cc2O1 [Compound 564, (2R,4R)-6-chloro-7-fluoro-4-hydroxy-N-{3-[1′-(2,2,2-trifluoroethyl)-1H,1′H-[4,4′-bipyrazol]-1-yl]bicyclo[1.1.1]pentan-1-yl}-3,4-dihydro-2H-1-benzopyran-2-carboxamide] | < 10 |
| CCOC(=O)OC[C@@H]1C[C@H]1c1cn(C23CC(NC(=O)[C@H]4C[C@@H](O)c5cc(Cl)ccc5O4)(C2)C3)nn1 (mixture of isomers) [Compound 543, ((1RS,2RS)-2-[1-(3-{[(2R,4R)-6-chloro-4-hydroxy-3,4-dihydro-2H-1-benzopyran-2-carbonyl]amino}bicyclo[1.1.1]pentan-1-yl)-1H-1,2,3-triazol-4-yl]cyclopropyl)methyl ethyl carbonate] | < 10 |
| O=C(NC12CC(n3cc(-c4ccc(OC(F)(F)F)cn4)cn3)(C1)C2)[C@H]1C[C@@H](O)c2cc(F)ccc2O1 (single isomer, unassigned) [Compound 475] | < 10 |
| O=C(NC12CC(n3cc(C(=O)N4CC[C@H](OC(F)(F)F)C4)cn3)(C1)C2)[C@@H]1C[C@@H](O)c2cc(Cl)ccc2O1 [Compound 324, (2S,4R)-6-chloro-4-hydroxy-N-(3-{4-[(3S)-3-(trifluoromethoxy)pyrrolidine-1-carbonyl]-1H-pyrazol-1-yl}bicyclo[1.1.1]pentan-1-yl)-3,4-dihydro-2H-1-benzopyran-2-carboxamide] | < 10 |
| O=C(NC12CC(n3cc(N4CC[C@H](COC(F)(F)F)C4)cn3)(C1)C2)[C@H]1C[C@@H](O)c2cc(Cl)ccc2O1 [Compound 373, (2R,4R)-6-chloro-4-hydroxy-N-[3-(4-{(3S)-3-[(trifluoromethoxy)methyl]pyrrolidin-1-yl}-1H-pyrazol-1-yl)bicyclo[1.1.1]pentan-1-yl]-3,4-dihydro-2H-1-benzopyran-2-carboxamide] | 50 to 250 |
| O=C(NC12CC(n3cc(-c4ccc(C(F)(F)F)cn4)cn3)(C1)C2)C1CNc2cc(C(F)(F)F)c(F)cc2O1 (stereo not shown) [Compound 591, 7-fluoro-6-(trifluoromethyl)-N-(3-{4-[5-(trifluoromethyl)pyridin-2-yl]-1H-pyrazol-1-yl}bicyclo[1.1.1]pentan-1-yl)-3,4-dihydro-2H-1,4-benzoxazine-2-carboxamide] | 10 to 50 |
| O=C(NC12CCC(n3cc(OCCCOC(F)(F)F)cn3)(C1)C2)[C@H]1C[C@@H](O)c2cc(Cl)ccc2O1 [Compound 628, (2R,4R)-6-chloro-4-hydroxy-N-(4-{4-[3-(trifluoromethoxy)propoxy]-1H-pyrazol-1-yl}bicyclo[2.1.1]hexan-1-yl)-3,4-dihydro-2H-1-benzopyran-2-carboxamide] | 50 to 250 |
| O=C(NC12CC(n3cc(-c4ccc(C(F)(F)F)cn4)cn3)(C1)C2)[C@H]1C[C@@H](O)c2cc(Cl)ccc2O1 [Compound 364, (2R,4R)-6-chloro-4-hydroxy-N-(3-{4-[5-(trifluoromethyl)pyridin-2-yl]-1H-pyrazol-1-yl}bicyclo[1.1.1]pentan-1-yl)-3,4-dihydro-2H-1-benzopyran-2-carboxamide] | < 10 |
| O=C(NC12CC(n3cc(C(=O)N4CC(COC(F)(F)F)C4)cn3)(C1)C2)[C@H]1C[C@@H](O)c2cc(Cl)ccc2O1 [Compound 329, (2R,4R)-6-chloro-4-hydroxy-N-[3-(4-{3-[(trifluoromethoxy)methyl]azetidine-1-carbonyl)-1H-pyrazol-1-yl}bicyclo[1.1.1]pentan-1-yl]-3,4-dihydro-2H-1-benzopyran-2-carboxamide] | < 10 |
| O=C(N[C@H]1C[C@@H](OC(F)(F)F)C1)c1cnn(C23CC(NC(=O)[C@H]4C[C@@H](O)c5cc(Cl)ccc5O4)(C2)C3)c1 [Compound 376, 1-(3-{[(2R,4R)-6-chloro-4-hydroxy-3,4-dihydro-2H-1-benzopyran-2-carbonyl]amino}bicyclo[1.1.1]pentan-1-yl)-N-[cis-3-(trifluoromethoxy)cyclobutyl]-1H-pyrazole-4-carboxamide] | 50 to 250 |
| O=C(NC12CC(n3cc(N4CC[C@H](OC(F)(F)F)C4)cn3)(C1)C2)[C@H]1C[C@@H](O)c2cc(Cl)ccc2O1 [Compound 355, (2R,4R)-6-chloro-4-hydroxy-N-(3-{4-[(3S)-3-(trifluoromethoxy)pyrrolidin-1-yl]-1H-pyrazol-1-yl}bicyclo[1.1.1]pentan-1-yl)-3,4-dihydro-2H-1-benzopyran-2-carboxamide] | 10 to 50 |
| O=C(N[C@H]1CC[C@H](n2cc(OCCCC(F)(F)F)cn2)CC1)[C@H]1C[C@@H](O)c2cc(Cl)ccc2O1 [Compound 526, (2R,4R)-6-chloro-4-hydroxy-N-{(1r,4R)-4-[4-(4,4,4-trifluorobutoxy)-1H-pyrazol-1-yl]cyclohexyl}-3,4-dihydro-2H-1-benzopyran-2-carboxamide] | 10 to 50 |
| O=C(NC12CC(n3cc(-c4cnn(CC(F)(F)F)c4)cn3)(C1)C2)[C@H]1C[C@@H](O)c2cc(Cl)ccc2O1 [Compound 563, (2R,4R)-6-chloro-4-hydroxy-N-{3-[1′-(2,2,2-trifluoroethyl)-1H,1′H-[4,4′-bipyrazol]-1-yl]bicyclo[1.1.1]pentan-1-yl}-3,4-dihydro-2H-1-benzopyran-2-carboxamide] | < 10 |
| O=C(NC12CC(n3cc(OC[C@H]4C[C@H](OC(F)(F)F)C4)cn3)(C1)C2)[C@H]1C[C@@H](O)c2cc(Cl)ccc2O1 [Compound 584, (2R,4R)-6-chloro-4-hydroxy-N-[3-(4-{[(1r,3R)-3-(trifluoromethoxy)cyclobutyl]methoxy}-1H-pyrazol-1-yl)bicyclo[1.1.1]pentan-1-yl]-3,4-dihydro-2H-1-benzopyran-2-carboxamide] | < 10 |
| O=C(NC12CCC(n3cc(OCCCOC(F)(F)F)cn3)(C1)C2)[C@H]1C[C@@H](O)c2cc(Cl)c(F)cc2O1 [Compound 629, (2R,4R)-6-chloro-7-fluoro-4-hydroxy-N-(4-{4-[3-(trifluoromethoxy)propoxy]-1H-pyrazol-1-yl}bicyclo[2.1.1]hexan-1-yl)-3,4-dihydro-2H-1-benzopyran-2-carboxamide] | 10 to 50 |
| O=C(NC12CC(c3ccnc(OCCOC(F)(F)F)n3)(C1)C2)[C@H]1C[C@@H](O)c2cc(Cl)c(F)cc2O1 [Compound 469, (2R,4R)-6-chloro-7-fluoro-4-hydroxy-N-(3-{2-[2-(trifluoromethoxy)ethoxy]pyrimidin-4-yl)bicyclo[1.1.1]pentan-1-yl}-3,4-dihydro-2H-1-benzopyran-2-carboxamide] | < 10 |
| O=C(NC12CC(n3cc(C(=O)N4CC[C@H](OC(F)(F)F)C4)cn3)(C1)C2)[C@H]1C[C@@H](O)c2cc(Cl)ccc2O1 [Compound 371, (2R,4R)-6-chloro-4-hydroxy-N-(3-{4-[(3S)-3-(trifluoromethoxy)pyrrolidine-1-carbonyl]-1H-pyrazol-1-yl}bicyclo[1.1.1]pentan-1-yl)-3,4-dihydro-2H-1-benzopyran-2-carboxamide] | < 10 |
| O=C(NC12CC(n3cc(-c4ccc(OC(F)(F)F)cn4)cn3)(C1)C2)[C@H]1C[C@@H](O)c2cc(C(F)(F)F)ccc2O1 [Compound 403, (2R,4R)-4-hydroxy-N-(3-{4-[5-(trifluoromethoxy)pyridin-2-yl]-1H-pyrazol-1-yl}bicyclo[1.1.1]pentan-1-yl)-6-(trifluoromethyl)-3,4-dihydro-2H-1-benzopyran-2-carboxamide] | < 10 |
| O=C(NC12CC(n3cc(CCCOC(F)(F)F)nn3)(C1)C2)[C@H]1C[C@@H](O)c2cc(Cl)ccc2O1 [Compound 516, (2R,4R)-6-chloro-4-hydroxy-N-(3-{4-[3-(trifluoromethoxy)propyl]-1H-1,2,3-triazol-1-yl}bicyclo[1.1.1]pentan-1-yl)-3,4-dihydro-2H-1-benzopyran-2-carboxamide] | < 10 |
| O=C(NC12CC(n3cc([C@H]4C[C@@H](OC(F)(F)F)C4)nn3)(C1)C2)[C@H]1C[C@@H](O)c2cc(Cl)c(F)cc2O1 [Compound 473, (2R,4R)-6-chloro-7-fluoro-4-hydroxy-N-(3-{4-[(1s,3S)-3-(trifluoromethoxy)cyclobutyl]-1H-1,2,3-triazol-1-yl}bicyclo[1.1.1]pentan-1-yl)-3,4-dihydro-2H-1-benzopyran-2-carboxamide] | < 10 |
| O=C(COc1ccc(C(F)(F)F)cc1O)NC12CC(n3cc([C@H]4C[C@@H](OC(F)(F)F)C4)nn3)(C1)C2 [Compound 615, 2-[2-hydroxy-4-(trifluoromethyl)phenoxy]-N-(3-{4-[(1s,3s)-3-(trifluoromethoxy)cyclobutyl]-1H-1,2,3-triazol-1-yl}bicyclo[1.1.1]pentan-1-yl)acetamide] | 10 to 50 |
| O=C(COc1ccc(Cl)c(Cl)c1)NC12CC(n3cc(C(=O)N4CC[C@H](OC(F)(F)F)C4)cn3)(C1)C2 [Compound 606, 2-(3,4-dichlorophenoxy)-N-(3-{4-[(3S)-3-(trifluoromethoxy)pyrrolidine-1-carbonyl]-1H-pyrazol-1-yl}bicyclo[1.1.1]pentan-1-yl)acetamide] | < 10 |
